# Source: patent US10308644B2, “Heterocyclic compounds as immunomodulators” (Incyte Corporation, priority 2016, dated 2019)
# pIC50: −log10 of the molar value.
# Target: PD-1/PD-L1 (Homo sapiens (Human), UniProt Q9NZQ7)
# Assay: PD-1/PD-L1 Homogeneous Time-Resolved Fluorescence (HTRF) Binding Assay
# Conditions: recombinant human PD-1 (3 nM) and PD-L1 (10 nM), 25° C., PBS pH 7.4
# Procedure, shortened: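 Fc-tagged human PD-1 (25-167, 3 nM) and His-tagged PD-L1 (19-238, 10 nM) preincubated with inhibitor 40 min in PBS pH 7.4, 0.05% Tween-20, 0.1% BSA, 1% DMSO, 25 °C. Binding detected by HTRF (Eu anti-IgG/APC anti-His, 665/620 nm) after 60 min; IC50 from percent control activity.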
# Chain of PD-1/PD-L1 (Q9NZQ7 19-238): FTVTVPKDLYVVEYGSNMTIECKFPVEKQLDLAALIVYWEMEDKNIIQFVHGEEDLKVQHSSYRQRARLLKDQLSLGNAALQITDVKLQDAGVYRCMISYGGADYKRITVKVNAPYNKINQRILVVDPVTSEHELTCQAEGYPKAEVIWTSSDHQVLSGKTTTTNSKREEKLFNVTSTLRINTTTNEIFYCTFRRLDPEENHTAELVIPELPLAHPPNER
row,pIC50,SMILES
1,≥ 8.00,"CCN(C1CCN(c2cccc(-c3cccc(-c4nc5cc(CN6CC[C@@H](C(=O)O)C6)cc(C#N)c5o4)c3C)c2Cl)CC1)[C@H]1C[C@@H](O)C1 [Example 49, (R)-1-((2-(2′-chloro-3′-(4-(ethyl((1s,3s)-3-hydroxycyclobutyl)amino)piperidin-1-yl)-2-methylbiphenyl-3-yl)-7-cyanobenzo[d]oxazol-5-yl)methyl)pyrrolidine-3-carboxylic acid]"
2,≥ 8.00,"Cc1c(-c2nc3cc(CN4CC[C@H](C(=O)O)C4)cc(C#N)c3o2)cccc1-c1cccc(NC(=O)c2nc3c(n2C)CCN(C)C3)c1Cl [Example 50, (S)-1-((2-(2′-chloro-3′-(1,5-dimethyl-4,5,6,7-tetrahydro-1H-imidazo[4,5-c]pyridine-2-carboxamido)-2-methylbiphenyl-3-yl)-7-cyanobenzo[d]oxazol-5-yl)methyl)pyrrolidine-3-carboxylic acid]"
3,≥ 8.00,"Cc1c(-c2nc3cc(CN4CC[C@H](C(=O)O)C4)cc(C#N)c3o2)cccc1-c1cccc(NC(=O)c2nc3c(n2C)CCN(C)C3)c1F [Example 51, (S)-1-((7-cyano-2-(3′-(1,5-dimethyl-4,5,6,7-tetrahydro-1H-imidazo[4,5-c]pyridine-2-carboxamido)-2′-fluoro-2-methylbiphenyl-3-yl)benzo[d]oxazol-5-yl)methyl)pyrrolidine-3-carboxylic acid]"
4,≥ 8.00,"Cc1c(-c2nc3cc(CN4CCCC[C@H]4C(=O)O)cc(C#N)c3o2)cccc1-c1cccc(NC(=O)c2nc3c(n2C)CCN(C)C3)c1Cl [Example 52, (S)-1-((2-(2′-chloro-3′-(1,5-dimethyl-4,5,6,7-tetrahydro-1H-imidazo[4,5-c]pyridine-2-carboxamido)-2-methylbiphenyl-3-yl)-7-cyanobenzo[d]oxazol-5-yl)methyl)piperidine-2-carboxylic acid]"
5,≥ 8.00,"Cc1c(-c2nc3cc(CN4CC[C@@H](C(=O)O)C4)cc(C#N)c3o2)cccc1-c1cccc(NC(=O)c2nc3c(n2C)CCN(C)C3)c1Cl [Example 53, (R)-1-((2-(2′-chloro-3′-(1,5-dimethyl-4,5,6,7-tetrahydro-1H-imidazo[4,5-c]pyridine-2-carboxamido)-2-methylbiphenyl-3-yl)-7-cyanobenzo[d]oxazol-5-yl)methyl)pyrrolidine-3-carboxylic acid]"
6,≥ 8.00,"Cc1c(-c2nc3cc(CN4CC[C@H](C(=O)O)C4)cc(C#N)c3o2)cccc1-c1cccc(-n2cc3c(n2)CCN(C)C3)c1Cl [Example 54, (S)-1-((2-(2′-chloro-2-methyl-3′-(5-methyl-4,5,6,7-tetrahydro-2H-pyrazolo[4,3-c]pyridin-2-yl)biphenyl-3-yl)-7-cyanobenzo[d]oxazol-5-yl)methyl)pyrrolidine-3-carboxylic acid]"
7,≥ 8.00,"Cc1c(-c2nc3cc(CN4CC[C@@H](C(=O)O)C4)cc(C#N)c3o2)cccc1-c1cccc(-n2cc3c(n2)CN(C)C3)c1Cl [Example 55, (R)-1-((2-(2′-chloro-2-methyl-3′-(5-methyl-5,6-dihydropyrrolo[3,4-c]pyrazol-2(4H)-yl)biphenyl-3-yl)-7-cyanobenzo[d]oxazol-5-yl)methyl)pyrrolidine-3-carboxylic acid]"
8,≥ 8.00,"Cc1c(-c2nc3cc(CN4CC[C@@H](C(=O)O)C4)cc(C#N)c3o2)cccc1-c1cccc(-n2cc3c(n2)CN(C(C)C)C3)c1Cl [Example 56, (R)-1-((2-(2′-chloro-3′-(5-isopropyl-5,6-dihydropyrrolo[3,4-c]pyrazol-2(4H)-yl)-2-methylbiphenyl-3-yl)-7-cyanobenzo[d]oxazol-5-yl)methyl)pyrrolidine-3-carboxylic acid]"
9,≥ 8.00,"Cc1c(-c2nc3cc(CN4CC[C@@H](C(=O)O)C4)cc(C#N)c3o2)cccc1-c1cccc(-n2cc3c(n2)CN(C)CC3)c1Cl [Example 57, (R)-1-((2-(2′-chloro-2-methyl-3′-(6-methyl-4,5,6,7-tetrahydro-2H-pyrazolo[3,4-c]pyridin-2-yl)biphenyl-3-yl)-7-cyanobenzo[d]oxazol-5-yl)methyl)pyrrolidine-3-carboxylic acid]"
10,≥ 8.00,"CCN1CCc2cn(-c3cccc(-c4cccc(-c5nc6cc(CN7CC[C@@H](C(=O)O)C7)cc(C#N)c6o5)c4C)c3Cl)nc2C1 [Example 58, (R)-1-((2-(2′-chloro-3′-(6-ethyl-4,5,6,7-tetrahydro-2H-pyrazolo[3,4-c]pyridin-2-yl)-2-methylbiphenyl-3-yl)-7-cyanobenzo[d]oxazol-5-yl)methyl)pyrrolidine-3-carboxylic acid]"
11,≥ 8.00,"Cc1c(-c2nc3cc(CN4CC[C@@H](C(=O)O)C4)cc(Cl)c3o2)cccc1-c1cccc(-c2nc3c(s2)CN(C(C)C)CC3)c1C [Example 59, (R)-1-((7-chloro-2-(3′-(5-isopropyl-4,5,6,7-tetrahydrothiazolo[5,4-c]pyridin-2-yl)-2,2′-dimethyl-[1,1′-biphenyl]-3-yl)benzo[d]oxazol-5-yl)methyl)pyrrolidine-3-carboxylic acid]"
12,≥ 8.00,"CCN1CCc2nc(-c3cccc(-c4cccc(-c5nc6cc(CN7CC[C@@H](C(=O)O)C7)cc(Cl)c6o5)c4C)c3C)sc2C1 [Example 60, (R)-1-((7-chloro-2-(3′-(5-ethyl-4,5,6,7-tetrahydrothiazolo[5,4-c]pyridin-2-yl)-2,2′-dimethyl-[1,1′-biphenyl]-3-yl)benzo[d]oxazol-5-yl)methyl)pyrrolidine-3-carboxylic acid]"
13,≥ 8.00,"Cc1c(-c2nc3cc(CN4CC[C@@H](C(=O)O)C4)cc(Cl)c3o2)cccc1-c1cccc(-c2nc3c(s2)CN(CCO)CC3)c1C [Example 61, (R)-1-((7-chloro-2-(3′-(5-(2-hydroxyethyl)-4,5,6,7-tetrahydrothiazolo[5,4-c]pyridin-2-yl)-2,2′-dimethyl-[1,1′-biphenyl]-3-yl)benzo[d]oxazol-5-yl)methyl)pyrrolidine-3-carboxylic acid]"
14,≥ 8.00,"Cc1c(-c2nc3cc(CN4CC[C@@H](C(=O)O)C4)cc(Cl)c3o2)cccc1-c1cccc(-c2nc3c(s2)CN(C(C)CO)CC3)c1C (stereo partly drawn) [Example 62, (3R)-1-((7-chloro-2-(3′-(5-(1-hydroxypropan-2-yl)-4,5,6,7-tetrahydrothiazolo[5,4-c]pyridin-2-yl)-2,2′-dimethyl-[1,1′-biphenyl]-3-yl)benzo[d]oxazol-5-yl)methyl)pyrrolidine-3-carboxylic acid]"
15,≥ 8.00,"Cc1c(-c2nc3cc(CN4CC[C@@H](C(=O)O)C4)cc(C#N)c3o2)cccc1-c1cccc(-c2nc3c(s2)CN(C(C)C)CC3)c1C [Example 63, (R)-1-((7-cyano-2-(3′-(5-isopropyl-4,5,6,7-tetrahydrothiazolo[5,4-c]pyridin-2-yl)-2,2′-dimethyl-[1,1′-biphenyl]-3-yl)benzo[d]oxazol-5-yl)methyl)pyrrolidine-3-carboxylic acid]"
16,≥ 8.00,"Cc1c(-c2nc3cc(CN4CC[C@@H](C(=O)O)C4)cc(C#N)c3o2)cccc1-c1cccc(-c2nc3c(s2)CN(CC2CC2)CC3)c1C [Example 64, (R)-1-((7-cyano-2-(3′-(5-(cyclopropylmethyl)-4,5,6,7-tetrahydrothiazolo[5,4-c]pyridin-2-yl)-2,2′-dimethyl-[1,1′-biphenyl]-3-yl)benzo[d]oxazol-5-yl)methyl)pyrrolidine-3-carboxylic acid]"
17,≥ 8.00,"Cc1c(-c2nc3cc(CN4CC[C@@H](C(=O)O)C4)cc(C#N)c3o2)cccc1-c1cccc(-c2nc3c(s2)CN(CCO)CC3)c1C [Example 65, (R)-1-((7-cyano-2-(3′-(5-(2-hydroxyethyl)-4,5,6,7-tetrahydrothiazolo[5,4-c]pyridin-2-yl)-2,2′-dimethyl-[1,1′-biphenyl]-3-yl)benzo[d]oxazol-5-yl)methyl)pyrrolidine-3-carboxylic acid]"
18,≥ 8.00,"Cc1c(-c2nc3cc(CN4CC[C@@H](C(=O)O)C4)cc(C#N)c3o2)cccc1-c1cccc(-c2nc3c(s2)CN(C(C)CO)CC3)c1C (stereo partly drawn) [Example 66, (3R)-1-((7-cyano-2-(3′-(5-(1-hydroxypropan-2-yl)-4,5,6,7-tetrahydrothiazolo[5,4-c]pyridin-2-yl)-2,2′-dimethyl-[1,1′-biphenyl]-3-yl)benzo[d]oxazol-5-yl)methyl)pyrrolidine-3-carboxylic acid]"
19,≥ 8.00,"Cc1c(-c2nc3cc(CN4CC[C@H](C(=O)O)C4)cc(C#N)c3o2)cccc1-c1cccc(-c2nc3c(s2)CN(CCO)CC3)c1C [Example 67, (S)-1-((7-cyano-2-(3′-(5-(2-hydroxyethyl)-4,5,6,7-tetrahydrothiazolo[5,4-c]pyridin-2-yl)-2,2′-dimethyl-[1,1′-biphenyl]-3-yl)benzo[d]oxazol-5-yl)methyl)pyrrolidine-3-carboxylic acid]"
20,≥ 8.00,"Cc1c(-c2nc3cc(CN4CC(C(=O)O)C4)cc(C#N)c3o2)cccc1-c1cccc(-c2nc3c(s2)CN(CCO)CC3)c1C [Example 68, 1-((7-cyano-2-(3′-(5-(2-hydroxyethyl)-4,5,6,7-tetrahydrothiazolo[5,4-c]pyridin-2-yl)-2,2′-dimethyl-[1,1′-biphenyl]-3-yl)benzo[d]oxazol-5-yl)methyl)azetidine-3-carboxylic acid]"
21,≥ 8.00,"Cc1c(-c2nc3c(s2)CNCC3)cccc1-c1cccc(-c2nc3cc(CN4CC[C@@H](C(=O)O)C4)cc(C#N)c3o2)c1Cl [Example 69, (R)-1-((2-(2-chloro-2′-methyl-3′-(4,5,6,7-tetrahydrothiazolo[5,4-c]pyridin-2-yl)-[1,1′-biphenyl]-3-yl)-7-cyanobenzo[d]oxazol-5-yl)methyl)pyrrolidine-3-carboxylic acid]"
22,≥ 8.00,"Cc1c(-c2nc3cc(CN4CC[C@@H](C(=O)O)C4)cc(Cl)c3o2)cccc1-c1cccc(-c2nc3c(s2)CNCC3)c1C [Example 70, (R)-1-((7-chloro-2-(2,2′-dimethyl-3′-(4,5,6,7-tetrahydrothiazolo[5,4-c]pyridin-2-yl)-[1,1′-biphenyl]-3-yl)benzo[d]oxazol-5-yl)methyl)pyrrolidine-3-carboxylic acid]"
